Literature values as cited in patent publication US9579356B2, “Dietary supplements for reducing cholesterol levels” (RELIV INTERNATIONAL INC., priority 2006, dated 2017).

What was measured:
[1] = tested on: rats which were fed a high cholesterol diet
[2] = tested on: human neutrophils
[3] = tested on: patients with LDL-cholesterol levels exceeding 160 mg/dl; conditions: after eight weeks; policosanol 10 mg/day, lovastatin 20 mg/day, simvastatin 10 mg/day
[4] = tested on: individuals having total cholesterol levels ranging from 210 to 326 mg/dL; conditions: 3.5 g daily, after two weeks
[5] = tested on: individuals having initial total cholesterol levels exceeding 260 mg/dL; conditions: 15 grams daily, three weeks
[6] = tested on: rats; conditions: dietary supplementation

## Oc1ccc(C=Cc2cc(O)cc(O)c2)cc1 [Resveratrol]
[1]
  cholesterol and triglyceride liver deposition: inhibited
  low-density lipoprotein (LDL) cholesterol levels: lowered
  ratio of total cholesterol to high-density lipoprotein (HDL) cholesterol: reduced
  serum triglyceride levels: lowered
[2]
  leukotriene production: induce

## CC[C@H](C)C(=O)O[C@H]1C[C@@H](C)C=C2C=C[C@H](C)[C@H](CC[C@@H]3C[C@@H](O)CC(=O)O3)[C@H]21 [lovastatin]
[3]
  reduced LDL-cholesterol levels: about 22%

## beta-glucan
[4]
  reduction in total cholesterol: 5.4%
[5]
  reduced LDL cholesterol: about 23%
  reduced total cholesterol: about 19%

## O=C([O-])[C@@H](O)[C@@H](O)[C@H](O)[C@@H](O)C(=O)[O-].[Ca+2] [calcium D-glucarate]
[6]
  lowering VLDL cholesterol: did not demonstrate similar effects
  lowering total triglycerides: did not demonstrate similar effects

## O=C(O)[C@@H](O)[C@@H](O)[C@H](O)[C@@H](O)C(=O)[O-].[K+] [potassium hydrogen D-glucarate]
[6]
  lowering VLDL cholesterol: effective
  lowering total triglycerides: effective
